In ChEMBL document CHEMBL6109075, “Identification of constrained peptidomimetics carrying a Michael acceptor warhead as antitrypanosomal agents” (Eur J Med Chem, 2025):

What was measured:
[1] = target: Rhodesain (Trypanosoma brucei rhodesiense) (UniProt Q95PM0); assay: Inhibition of Trypanosoma brucei rhodesiense rhodesain expressed in Pichia pastoris using Cbz-Phe-Arg-AMC as substrate at 20 uM incubated for 30 mins by fluorescence assay relative to control
[2] = target: Rhodesain (Trypanosoma brucei rhodesiense) (UniProt Q95PM0); assay: Inhibition of Trypanosoma brucei rhodesiense rhodesain expressed in Pichia pastoris using Cbz-Phe-Arg-AMC as substrate assessed as second order rate constant obtained from ratio of Kinact by Ki incubated for 30 mins by fluorescence assay
[3] = Cytotoxicity against human SH-SY5Y cells assessed as reduction in cell viability incubated for 24 hrs by MTT assay; type: toxicity, cell-based
Trypanosoma brucei = assay: Antitrypanosomal activity against Trypanosoma brucei incubated for 24 hrs by luminescence based ClarioStar plate reader analysis; type: functional, organism-based
Rhodesain = Rhodesain (Trypanosoma brucei rhodesiense, UniProt Q95PM0); assay: Inhibition of Trypanosoma brucei rhodesiense rhodesain expressed in Pichia pastoris using Cbz-Phe-Arg-AMC as substrate assessed as inhibition constant incubated for 30 mins by fluorescence assay
[4] = target: Rhodesain (Trypanosoma brucei rhodesiense) (UniProt Q95PM0); assay: Inhibition of Trypanosoma brucei rhodesiense rhodesain expressed in Pichia pastoris using Cbz-Phe-Arg-AMC as substrate assessed as inactivation constant incubated for 30 mins by fluorescence assay

Sequence of Rhodesain (Trypanosoma brucei rhodesiense) (Q95PM0 1-450): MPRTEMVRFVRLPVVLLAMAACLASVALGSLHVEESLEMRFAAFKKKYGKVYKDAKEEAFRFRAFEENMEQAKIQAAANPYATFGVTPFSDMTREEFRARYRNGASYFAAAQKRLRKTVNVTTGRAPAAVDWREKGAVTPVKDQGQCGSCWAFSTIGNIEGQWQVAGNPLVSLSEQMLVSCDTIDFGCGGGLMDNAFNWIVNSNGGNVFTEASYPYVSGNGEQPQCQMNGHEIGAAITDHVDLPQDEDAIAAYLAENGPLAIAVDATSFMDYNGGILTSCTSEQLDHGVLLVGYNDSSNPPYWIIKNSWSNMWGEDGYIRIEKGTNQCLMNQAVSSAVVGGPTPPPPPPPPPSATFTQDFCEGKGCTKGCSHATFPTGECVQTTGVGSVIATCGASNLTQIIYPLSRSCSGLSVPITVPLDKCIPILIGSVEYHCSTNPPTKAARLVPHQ
Sequence of Rhodesain (Q95PM0 whole entry): as the sequence (Q95PM0 1-450) above

## CC(=O)/C=C/[C@H](CCc1ccccc1)NC(=O)[C@@H]1Cc2ccccc2CN1C(=O)c1c(F)cccc1F
[1]
  inhibition: 32%

## CC(=O)/C=C/[C@H](CCc1ccccc1)NC(=O)[C@@H]1Cc2ccccc2CN1C(=O)OC(C)(C)C
[1]
  inhibition: 18%

## CC(=O)/C=C/[C@H](CCc1ccccc1)NC(=O)[C@@H]1Cc2ccccc2CN1C(=O)c1cccc(F)c1
[2]
  Ratio: 30.1 10^3/M/min
[3]
  CC50 at 24 h: > 100000 nM
Trypanosoma brucei
  EC50: 1350 nM
Rhodesain
  Ki: 700 nM
[4]
  Kinact: 0.021 min⁻¹

## CC(=O)/C=C/[C@H](CCc1ccccc1)NC(=O)[C@@H]1Cc2ccccc2CN1C(=O)[C@H](C)NC(=O)OCc1ccccc1
[1]
  inhibition: 26%

## CC(=O)/C=C/[C@H](CCc1ccccc1)NC(=O)[C@@H]1Cc2ccccc2CN1C(=O)[C@H](CC(C)C)NC(=O)OCc1ccccc1
[2]
  Ratio: 68.5 10^3/M/min
[3]
  CC50 at 24 h: > 100000 nM
Trypanosoma brucei
  EC50: 580 nM
Rhodesain
  Ki: 16 nM
[4]
  Kinact: 0.001 min⁻¹

## CC(=O)/C=C/[C@H](CCc1ccccc1)NC(=O)[C@@H]1Cc2ccccc2CN1C(=O)c1ccc(F)cc1
[2]
  Ratio: 8 10^3/M/min
[3]
  CC50 at 24 h: > 100000 nM
Trypanosoma brucei
  EC50: 850 nM
Rhodesain
  Ki: 1920 nM
[4]
  Kinact: 0.015 min⁻¹

## CC(=O)/C=C/[C@H](C)NC(=O)[C@@H]1Cc2ccccc2CN1C(=O)c1ccc(F)cc1F
[1]
  inhibition: 20.2%

## CC(=O)/C=C/CNC(=O)[C@@H]1Cc2ccccc2CN1C(=O)c1ccc(F)cc1F
[1]
  inhibition: 11%

## CC(=O)/C=C/[C@H](CCc1ccccc1)NC(=O)[C@@H]1Cc2ccccc2CN1C(=O)[C@H](CC1CCCCC1)NC(=O)OCc1ccccc1
[2]
  Ratio: 47.9 10^3/M/min
[3]
  CC50 at 24 h: > 100000 nM
Trypanosoma brucei
  EC50: 570 nM
Rhodesain
  Ki: 22 nM
[4]
  Kinact: 0.001 min⁻¹

## CC(=O)/C=C/[C@H](CCc1ccccc1)NC(=O)[C@@H]1Cc2ccccc2CN1C(=O)OCc1ccccc1
[2]
  Ratio: 6.7 10^3/M/min
[3]
  CC50 at 24 h: > 100000 nM
Trypanosoma brucei
  EC50: 670 nM
Rhodesain
  Ki: 720 nM
[4]
  Kinact: 0.005 min⁻¹

## CC(=O)/C=C/[C@H](CCc1ccccc1)NC(=O)[C@@H]1Cc2ccccc2CN1C(=O)c1ccccc1F
[2]
  Ratio: 4.1 10^3/M/min
[3]
  CC50 at 24 h: > 100000 nM
Trypanosoma brucei
  EC50: 910 nM
Rhodesain
  Ki: 4880 nM
[4]
  Kinact: 0.019 min⁻¹

## CC(=O)/C=C/[C@H](CCc1ccccc1)NC(=O)[C@H](Cc1ccccc1)NC(=O)[C@H](CC1CCCCC1)NC(=O)OCc1ccccc1
Trypanosoma brucei
  EC50: 1300 nM

## CC(=O)/C=C/[C@H](CCc1ccccc1)NC(=O)[C@H](Cc1ccccc1)NC(=O)[C@H](Cc1ccccc1)NC(=O)OCc1ccccc1
Trypanosoma brucei
  EC50: 2600 nM

## CC(=O)/C=C/[C@H](CCc1ccccc1)NC(=O)[C@@H]1Cc2ccccc2CN1C(=O)[C@H](Cc1ccccc1)NC(=O)OCc1ccccc1
[2]
  Ratio: 75.6 10^3/M/min
[3]
  CC50 at 24 h: > 100000 nM
Trypanosoma brucei
  EC50: 420 nM
Rhodesain
  Ki: 11 nM
[4]
  Kinact: 0.001 min⁻¹

## CC(=O)/C=C/[C@H](Cc1ccccc1)NC(=O)[C@@H]1Cc2ccccc2CN1C(=O)c1ccc(F)cc1F
[1]
  inhibition: 18.4%

## CC(=O)/C=C/[C@H](CCc1ccccc1)NC(=O)[C@H](Cc1ccccc1)NC(=O)[C@H](CC(C)C)NC(=O)OCc1ccccc1
Trypanosoma brucei
  EC50: 3100 nM

## CC(=O)/C=C/[C@H](CCc1ccccc1)NC(=O)[C@@H]1Cc2ccccc2CN1C(=O)c1ccc(F)cc1F
[2]
  Ratio: 146 10^3/M/min
[3]
  CC50 at 24 h: > 100000 nM
Trypanosoma brucei
  EC50: 1210 nM
Rhodesain
  Ki: 90 nM
[4]
  Kinact: 0.012 min⁻¹

## CC(=O)/C=C/[C@H](CCc1ccccc1)NC(=O)[C@@H]1Cc2ccccc2CN1C(=O)Nc1ccc(Cl)cc1C
[1]
  inhibition: 40%

## CC(=O)/C=C/[C@H](CCc1ccccc1)NC(=O)[C@@H]1Cc2ccccc2CN1C(=O)Nc1ccc(C)cc1
[1]
  inhibition: 14%
